pIC50: −log10 of the molar value.

For the assay, the target named is T1, recombinant human GR (Homo sapiens, UniProt P04150).
T1 construct: purchased Panvera/Invitrogen P2812 (kit P2893)
T1 sequence (P04150 1-777): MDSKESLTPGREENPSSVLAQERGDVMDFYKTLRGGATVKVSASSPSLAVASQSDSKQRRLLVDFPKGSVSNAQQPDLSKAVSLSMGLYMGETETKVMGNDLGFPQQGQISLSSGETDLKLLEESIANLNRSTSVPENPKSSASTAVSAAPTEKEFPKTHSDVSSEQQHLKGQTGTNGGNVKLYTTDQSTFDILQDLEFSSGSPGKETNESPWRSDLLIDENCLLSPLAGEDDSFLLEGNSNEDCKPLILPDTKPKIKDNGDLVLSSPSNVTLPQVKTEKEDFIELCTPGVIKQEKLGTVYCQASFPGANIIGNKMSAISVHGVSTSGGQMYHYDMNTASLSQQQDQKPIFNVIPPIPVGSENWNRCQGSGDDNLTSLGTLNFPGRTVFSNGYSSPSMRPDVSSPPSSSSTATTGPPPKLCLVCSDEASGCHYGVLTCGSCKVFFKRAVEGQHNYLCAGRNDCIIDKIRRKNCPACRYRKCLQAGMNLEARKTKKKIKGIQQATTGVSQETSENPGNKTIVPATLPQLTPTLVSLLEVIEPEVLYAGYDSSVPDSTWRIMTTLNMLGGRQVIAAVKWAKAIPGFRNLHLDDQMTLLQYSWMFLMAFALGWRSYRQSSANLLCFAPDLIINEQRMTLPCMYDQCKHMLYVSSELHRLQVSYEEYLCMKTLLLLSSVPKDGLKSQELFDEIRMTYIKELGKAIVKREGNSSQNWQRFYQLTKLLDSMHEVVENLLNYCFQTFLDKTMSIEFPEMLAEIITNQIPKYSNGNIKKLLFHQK
Nature of the assay: Human Glucocorticoid Receptor (GR) Assay, fluorescence polarization competition with GS Red tracer. As to conditions: 2 hours at room temperature, 100% control 10 μM Dexamethasone, XLfit model 205, read-out: Inhibition of GR binding, IC50. Here is the method: Human Glucocorticoid Receptor (GR) Assay The assay is based on a commercial kit from Panvera/Invitrogen (Part number P2893). The assay technology is fluorescence polarization. The kit utilises recombinant human GR (Panvera, Part number P2812), a Fluoromone™ labelled tracer (GS Red, Panvera, Part number P2894) and a Stabilizing Peptide 10X (Panvera, Part number P2815). The GR and Stabilizing Peptide reagents are stored at −70° C. while the GS Red is stored at −20° C. Also included in the kit are 1M DTT (Panvera, Part number P2325, stored at −20° C.) and GR Screening buffer 10X (Panvera, Part number P2814, stored at −70° C. initially but once thawed stored at room temperature). Avoid repeated freeze/thaws for all reagents. The GR Screening buffer 10X comprises 100 mM potassium phosphate, 200 mM sodium molybdate, 1 mM EDTA and 20% DMSO. Test compounds (1 μL) and controls (1 μL) in 100% DMSO were added to black polystyrene 384-well plates (Greiner low volume black flat-bottom, part number 784076). 0% control was 100% DMSO and 100% control was 10 μM Dexamethasone. Background solution (8 μL; assay buffer 10X, Stabilizing Peptide, DTT and ice cold MQ water) was added to the background wells. GS Red solution (7 μL; assay buffer 10X, Stabilizing Peptide, DTT, GS Red and ice cold water) was added to all wells except background wells. GR solution (7 μL; assay buffer 10X, Stabilizing Peptide, DTT, GR and ice cold water) was added to all wells. The plate was sealed and incubated in a dark at room temperature for 2 hours. The plate was read in an Analyst plate reader (LJL Biosystems/Molecular Devices Corporation) or other similar plate reader capable of recording fluorescence polarization (excitation wavelength 530 nm, emission wavelength 590 nm and a dichroic mirror at 561 nm).

Take `CCC(=O)O[C@]1(C(=O)SCF)CC[C@H]2[C@@H]3CCC4=Cc5c(cnn5-c5cccc(C(=O)NC6CCCC6)c5)C[C@]4(C)[C@H]3[C@@H](O)C[C@@]21C` [Example 62, (1R,3aS,3bS,10aR, 10bS,11S,12aS)-7-[3-(cyclopentylcarbamoyl)phenyl]-1-{[(fluoromethyl)sulfanyl]carbonyl}-11-hydroxy-10a,12a-dimethyl-1,2,3,3a,3b,4,5,7,10, 10a,10b,11,12,12a-tetradecahydrocyclo-penta[5,6]naphtho [1,2-f]indazol-1-yl propanoate]: the pIC50 was 8.44.
For `CCNC(=O)c1cccc(-n2ncc3c2C=C2CC[C@H]4[C@@H]5C[C@@H](C)[C@](OC(=O)COC)(C(=O)SCF)[C@@]5(C)C[C@H](O)[C@]4(F)[C@@]2(C)C3)c1` [Example 27, (1R,2R,3aS,3bS, 10aS,10bR,11S,12aS)-7-[3-(ethylcarbamoyl)phenyl]-10b-fluoro-1-{[(fluoro-methyl)sulfanyl]-carbonyl}-11-hydroxy-2,10a,12a-trimethyl-1,2,3,3a, 3b,4,5,7,10,10a,- 10b,11,12,12a-tetradecahydrocyclo-penta[5,6]naphtho [1,2-f]indazol-1-yl methoxyacetate] the value was 9.33.
For `CCC(=O)O[C@]1(C(=O)SCF)CC[C@H]2[C@@H]3CCC4=Cc5c(cnn5-c5cccc(C(=O)NCCOC)c5)C[C@]4(C)[C@H]3[C@@H](O)C[C@@]21C` [Example 2, (1R,3aS,3bS,10aR,10bS,11S,12aS)-1-{[(Fluoromethyl)sulfanyl]carbonyl}-11-hydroxy-7-{3-[(2-methoxyethyl)carbamoyl]phenyl}-10a,12a-dimethyl-1,2,3,3a,3b,4,5,7,10,10a,10b,11,12,12a-tetradecahydrocyclopenta[5,6]naphtho[1,2-f]indazol-1-yl propanoate] the value was 9.09.
In the case of `CCC(=O)O[C@]1(C(=O)SCC#N)CC[C@H]2[C@@H]3CCC4=Cc5c(cnn5-c5cccc(C(=O)NC6CCS(=O)(=O)C6)c5)C[C@]4(C)[C@H]3[C@@H](O)C[C@@]21C` (stereo partly drawn) [Example 12, (1R,3aS,3bS,10aR,10bS,11S,12aS)-1-{[(Cyanomethyl)sulfanyl]carbonyl}-7-{3-[(1,1-dioxidotetrahydrothiophen-3-yl)carbamoyl]phenyl}-11-hydroxy-10a,12a-dimethyl-1,2,3,3a,3b,4,5,7,10,10a,10b,11,12,12a-tetradecahydrocyclopenta[5,6]naphtho[1,2-f]indazol-1-yl propanoate] it was 8.37; in that of `CCC(=O)O[C@]1(C(=O)SCF)[C@H](C)C[C@H]2[C@@H]3CCC4=Cc5c(cnn5-c5cccc(C(=O)N6CCC[C@@H]6C(N)=O)c5)C[C@]4(C)[C@@]3(F)[C@@H](O)C[C@@]21C` [Example 42, (1R,2R,3aS,3bS, 10aS,10bR,11S,12aS)-7-(3-{[(2R)-2-carbamoyl-pyrrolidin-1-yl]carbonyl}phenyl)-10b-fluoro-1-{(fluoromethyl)sulfanyl] carbonyl}-11-hydroxy-2,10a,12a-trimethyl-1,2,3,3a,3b,4,5,7,10, 10a,10b,11,12,12a-tetradecahydrocyclo-penta[5,6]naphtho [1,2-f]indazol-1-yl propanoate], 8.36.
Consider `COCC(=O)O[C@]1(C(=O)SCF)CC[C@H]2[C@@H]3CCC4=Cc5c(cnn5-c5cccc(C(=O)N6CCC[C@@H]6C(N)=O)c5)C[C@]4(C)[C@H]3[C@@H](O)C[C@@]21C` [Example 16, (1R,3aS,3bS,10aR,10bS,11S, 12aS)-7-(3-{[(2R)-2-carba-moylpyrrolidin-1-yl]carbonyl}phenyl)-1-{[(fluoromethyl)sulfanyl]carbonyl}-11-hydroxy-10a,12a-dimethyl-1,2,3,3a,3b,4,5,7,10,10a,10b, 11,12,12a-tetradecahydro-cyclopenta[5,6]naphtho[1,2-f] indazol-1-yl methoxyacetate], for which the pIC50 is 8.05.
Take `CCC(=O)O[C@]1(C(=O)SCF)[C@H](C)C[C@H]2[C@@H]3CCC4=Cc5c(cnn5-c5cccc(C(=O)NCC(N)=O)c5)C[C@]4(C)[C@@]3(F)[C@@H](O)C[C@@]21C` [Example 41, (1R,2R,3aS,3bS, 10aS,10bR,11S,12aS)-7-{3-[(2-amino-2-oxoethyl)carbamoyl]phenyl}-10b-fluoro-1-{[(fluoromethyl)sulfanyl]carbonyl}-11-hydroxy-2,10a,12a-trimethyl-1,2,3,3a,3b,4,5,7,10, 10a,10b,11,12,12a-tetradecahydrocyclo-penta[5,6]naphtho [1,2-f]indazol-1-yl propanoate]: the pIC50 was 8.92.
In the case of `CCC(=O)O[C@]1(C(=O)SCF)CC[C@H]2[C@@H]3CCC4=Cc5c(cnn5-c5cccc(C(=O)NCC(N)=O)c5)C[C@]4(C)[C@@]3(F)[C@@H](O)C[C@@]21C` [Example 44, (1R,3aS,3bS,10aS, 10bR,11S,12aS)-7-{3-[(2-amino-2-oxoethyl)carbamoyl]phenyl}-10b-fluoro-1-{[(fluoromethyl)sulfanyl]carbonyl}-11-hydroxy-10a,12a-dimethyl-1,2,3,3a,3b,4,5,7,10, 10a,10b,11,12,12a-tetradecahydrocyclo-penta[5,6]naphtho [1,2-f]indazol-1-yl propanoate] it was 8.66.
In the case of `COCC(=O)O[C@]1(C(=O)SCF)[C@H](C)C[C@H]2[C@@H]3CCC4=Cc5c(cnn5-c5cccc(C(=O)NCc6cccnc6)c5)C[C@]4(C)[C@@]3(F)[C@@H](O)C[C@@]21C` [Example 46, (1R,2R,3aS,3bS, 10aS,10bR,11S,12aS)-10b-fluoro-1-{[(fluoromethyl)sulfanyl]carbonyl}-11-hydroxy-2,10a,12a-trimethyl-7-{3-[(pyridin-3-ylmethyl)carbamoyl]phenyl}-1,2,3,3a,3b,4,5,7,10, 10a,10b,11,12,12a-tetradecahydrocyclo-penta[5,6]naphtho [1,2-f]indazol-1-yl methoxyacetate] it was 8.48; in that of `CNC(=O)c1cccc(-n2ncc3c2C=C2CC[C@H]4[C@@H]5C[C@@H](C)[C@](OC(=O)COC)(C(=O)SCF)[C@@]5(C)C[C@H](O)[C@]4(F)[C@@]2(C)C3)c1` [Example 28, 1R,2R,3aS,3bS, 10aS,10bR,11S,12aS)-10b-fluoro-1-{[(fluoromethyl)sulfanyl] carbonyl}-11-hydroxy-2,10a,12a-trimethyl-7[3-(methylcarbamoyl)phenyl]-1,2,3,3a,3b,4,5,7,10, 10a,10b,11,12,12a-tetradecahydrocyclo-penta[5,6]naphtho [1,2-f]indazol-1-yl methoxyacetate], 8.64; in that of `COCC(=O)O[C@]1(C(=O)SCF)[C@H](C)C[C@H]2[C@@H]3CCC4=Cc5c(cnn5-c5cccc(C(=O)N[C@H](C)C(N)=O)c5)C[C@]4(C)[C@@]3(F)[C@@H](O)C[C@@]21C` [Example 29, (1R,2R,3aS,3bS, 10aS,10bR,11S,12aS)-7-(3-{[(1R)-2-amino-1-methyl-2-oxoethyl]carbamoyl}phenyl)-10b-fluoro-1-{[(fluoromethyl)-sulfanyl]carbonyl}-11-hydroxy-2,10a,12a-trimethyl-1,2,3,3a,3b,4,5,7,10, 10a,10b,11,12,12a-tetradecahydrocyclo-penta[5,6]naphtho [1,2-f]indazol-1-yl methoxyacetate], 8.59.

For the origin of these results see patent publication US20100256104A1, “NOVEL AMIDE COMPOUNDS” (ASTRAZENECA R&D, priority 2009, published 2010).
